Results published in ChEMBL document CHEMBL4483862, “Open-source discovery of chemical leads for next-generation chemoprotective antimalarials” (2018).

Tested on: Plasmodium berghei
Assay: Luciferase/luciferin-expressing antifolate-resistant parasites were used to infect a culture of HepG2 cells that were pre-incubated with compounds. Infected hepatocytes emit light due to the luciferase reaction. Assay results are presented as the percent inhibition of light emission compared to control. […]
Format: functional
Conditions: sporozoite; for IC90: read-out: LUCIFERASE INFECTION ASSAY - IC90
[1] = read-out: LUCIFERASE INFECTION ASSAY - IC50

Row | SMILES | IC90 [µM] | IC50 [1] [µM] | also measured
1 | Nc1nc2ccccc2n1Cc1ccc(Cl)cc1 | 5.46 |  | IC50 (HEPG2TOX_HILL_SLOPE 1, HEPG2TOX_R_SQUARED 0.963, PBLUC_HILL_SLOPE 11.6, PBLUC_R_SQUARED 0.65, read-out: LUCIFERASE INFECTION ASSAY - IC50): 4.52 µM
2 | Cn1c(-c2ccccc2)nc2cnc(-c3ccc(N)nc3)cc21 | > 10 |  | IC50 (HEPG2TOX_HILL_SLOPE 4.2, HEPG2TOX_R_SQUARED 0.898, PBLUC_HILL_SLOPE 2.04, PBLUC_R_SQUARED 0.316, read-out: LUCIFERASE INFECTION ASSAY - IC50): 5.32 µM
3 | CC(C)Cc1ccc(C(NC(=O)CCc2ccc(S(N)(=O)=O)cc2)c2cccs2)cc1 (configuration not stated) | > 10 |  | IC50 (PBLUC_HILL_SLOPE 2.82, PBLUC_R_SQUARED 0.609, read-out: LUCIFERASE INFECTION ASSAY - IC50): 7.34 µM
4 | CCOc1cc(/C=C2\CN(CC)C/C(=C\c3ccc(O)c(OCC)c3)C2=O)ccc1O | 4.59 |  | IC50 (HEPG2TOX_HILL_SLOPE 12.4, HEPG2TOX_R_SQUARED 0.875, PBLUC_HILL_SLOPE 8.96, PBLUC_R_SQUARED 0.775, read-out: LUCIFERASE INFECTION ASSAY - IC50): 3.59 µM
5 | CN(CC(=O)Nc1ccc(Oc2ccccc2)cc1)c1c(N)n(Cc2ccccc2)c(=O)[nH]c1=O | > 10 |  | IC50 (PBLUC_HILL_SLOPE 10.4, PBLUC_R_SQUARED 0.215, read-out: LUCIFERASE INFECTION ASSAY - IC50): 9.74 µM
6 | COc1cccc(Cn2c3ccc(NC(=O)CC4CCCCC4)cc3c(=O)n2C)c1 | > 8.1 | > 8.1 | 
7 | CCCCn1nc(C(=O)Nc2nc(-c3ccc(CCNC(C)=O)cc3)cs2)c2ccccc2c1=O | > 10 | > 10 | 
8 | O=C(N/N=C/c1ccc(F)cc1)c1ccc[n+]([O-])c1 | > 10 |  | IC50 (PBLUC_HILL_SLOPE 1.11, PBLUC_R_SQUARED 0.152, read-out: LUCIFERASE INFECTION ASSAY - IC50): 5.8 µM
9 | CCCCCc1ccc(C(=O)Nc2nc3ccccn3c2C(=O)NCCCN2CCOCC2)cc1 | 3.5 |  | IC50 (PBLUC_HILL_SLOPE 8.91, PBLUC_R_SQUARED 0.136, read-out: LUCIFERASE INFECTION ASSAY - IC50): 2.74 µM
10 | Cn1nc(C(F)(F)F)cc1-c1ccc(NC(=O)Nc2cccc(C(F)(F)F)c2)s1 | > 7.6 |  | IC50 (PBLUC_HILL_SLOPE 15.6, PBLUC_R_SQUARED 0.0592, read-out: LUCIFERASE INFECTION ASSAY - IC50): 7.44 µM
11 | O=C(Nc1cccc(Oc2cnccn2)c1)C(c1ccccc1)c1ccccc1 | > 10 |  | IC50 (PBLUC_HILL_SLOPE 11.4, PBLUC_R_SQUARED 0.171, read-out: LUCIFERASE INFECTION ASSAY - IC50): 8.47 µM
12 | Cc1nn(CC(=O)N2c3ccccc3NC(=O)CC2C)c(=O)c(C#N)c1C (configuration not stated) | > 2 | > 2 | 
13 | CCCCOc1ccc(Nc2nc(C(N)c3ccccc3Cl)cs2)nn1 (configuration not stated) | 8.44 |  | IC50 (PBLUC_HILL_SLOPE 6.47, PBLUC_R_SQUARED 0.485, read-out: LUCIFERASE INFECTION ASSAY - IC50): 6.01 µM
14 | O=C(Nc1ccc2c[nH]nc2c1)c1cccc(Oc2ccccc2)c1 | > 10 | > 10 | 
15 | C=CCn1c(-c2c(C)oc3ccccc23)cs/c1=N\S(=O)(=O)c1cccs1 | > 10 | > 10 | 
16 | CC1(C)CC(N2CCN(C(c3ccccc3)c3ccccc3)CC2)=CC(=[N+]2CCCCC2)C1 | 1.67 |  | IC50 (HEPG2TOX_HILL_SLOPE 2.29, HEPG2TOX_R_SQUARED 0.813, PBLUC_HILL_SLOPE 10.9, PBLUC_R_SQUARED 0.679, read-out: LUCIFERASE INFECTION ASSAY - IC50): 1.36 µM

Row | SMILES | IC90 [µM] | IC50 [1] [µM] | also measured
17 | Cc1cc(C)c(OCC(=O)N2CCCC2c2nc3ccccc3[nH]2)c(C)c1 (configuration not stated) | > 10 | > 10 | 
18 | CCCc1cc(=O)n2nc(COc3ccccc3)c(-c3ccccc3)c2[nH]1 | 5.37 |  | IC50 (HEPG2TOX_HILL_SLOPE 7.2, HEPG2TOX_R_SQUARED 0.777, PBLUC_HILL_SLOPE 5.33, PBLUC_R_SQUARED 0.154, read-out: LUCIFERASE INFECTION ASSAY - IC50): 3.56 µM
19 | O=C(/C(=C/c1ccc(N2CCOCC2)cc1)c1nc2ccccc2[nH]1)c1cccc(Cl)c1 | > 10 | > 10 | 
20 | COc1ccc(C(C)NC(=O)CCCN2C(=O)c3ccccc3C2=O)cc1F (configuration not stated) | > 10 | > 10 | 
21 | O=C(c1ccccc1)C1CCN(C(=O)/C=C/c2cccc(Cl)c2Cl)CC1 | > 10 |  | IC50 (PBLUC_HILL_SLOPE 1.75, PBLUC_R_SQUARED 0.122, read-out: LUCIFERASE INFECTION ASSAY - IC50): > 10 µM
22 | CCC(C)(C)c1ccc(Oc2ccc(NC(=O)COC(=O)c3cc(-c4cc(OC)c(OC)c(OC)c4)nc4ccccc34)cc2)cc1 | > 10 |  | IC50 (PBLUC_HILL_SLOPE 0.863, PBLUC_R_SQUARED 0.508, read-out: LUCIFERASE INFECTION ASSAY - IC50): 2.17 µM
23 | Cc1ccc(NC(=O)NC(=O)CSc2nccn2Cc2ccccc2)c(C)c1 | > 10 |  | IC50 (FFLUC_HILL_SLOPE 2.79, FFLUC_R_SQUARED 0.544, read-out: LUCIFERASE INFECTION ASSAY - IC50): > 10 µM
24 | O=C1/C(=C\c2ccccn2)N(CCc2ccccc2)S(=O)(=O)c2ccccc21 | > 8.45 | > 8.45 | 
25 | N#C/C(=N\Nc1cc(C(F)(F)F)cc(C(F)(F)F)c1)S(=O)(=O)c1ccc(Cl)cc1 | 1.73 |  | IC50 (FFLUC_HILL_SLOPE 2.02, FFLUC_R_SQUARED 0.178, HEPG2TOX_HILL_SLOPE 2.35, HEPG2TOX_R_SQUARED 0.941, PBLUC_HILL_SLOPE 1.74, PBLUC_R_SQUARED 0.757, read-out: LUCIFERASE INFECTION ASSAY - IC50): 0.488 µM
26 | COc1ccc(OC)c(C(=O)c2oc3cc(NC(=O)C4CC4)ccc3c2C)c1 | 0.519 | 0.214 | 
27 | CC(C)(C)NC(=O)c1cc(-c2ccccc2Cl)nc2ccccc12 | > 9.74 | > 9.74 | 
28 | Cc1ccc(S(=O)(=O)NN(C)c2nc3ccccc3nc2C(F)(F)F)cc1 | 3.01 |  | IC50 (HEPG2TOX_HILL_SLOPE 2.57, HEPG2TOX_R_SQUARED 0.987, PBLUC_HILL_SLOPE 18.2, PBLUC_R_SQUARED 0.483, read-out: LUCIFERASE INFECTION ASSAY - IC50): 2.66 µM
29 | CC1(C)CC(=O)C=C(SCC(=O)Nc2cccc(C(F)(F)F)c2)S1 | > 8.79 | > 8.79 | 
30 | C=CCSc1nnc(-c2ccc(C(C)(C)C)cc2)n1-c1ccc(C(C)C)cc1 | > 8.43 |  | IC50 (HEPG2TOX_HILL_SLOPE 6.39, HEPG2TOX_R_SQUARED 0.425, PBLUC_HILL_SLOPE 3, PBLUC_R_SQUARED 0.616, read-out: LUCIFERASE INFECTION ASSAY - IC50): > 8.43 µM
31 | COc1ccc(NC(=O)C2C(=S)NC(=N)C(C#N)C2c2ccc(Cl)cc2)cc1 (configuration not stated) | > 10 | > 10 | 
